Laboratory results from article PMC9354042, “Discovery of BRAF/HDAC Dual Inhibitors Suppressing Proliferation of Human Colorectal Cancer Cells” (Frontiers in Chemistry, 2022).

Experiments:
[1] = tested on: HCT116 cells; assay: Antiproliferation CCK-8 assay, HCT116; assay type: cell-based; details: Homo sapiens, HCT-116; CCK-8, 72 h, HCT116 (wild-type BRAF); means of three independent experiments; read-out: Cellular IC50 HCT116
Procedure: (§1) HCT116 and HT-29 cells were obtained from the Shanghai Cell Bank (Type Culture Collection (TCC), Chinese Academy of Sciences) and cultured in DMEM (10–013-CVR, corning) supplemented with 10% fetal bovine serum (04-001-1A, BI), 1% penicillin/streptomycin (03-031-1B, BI).
(§2) The cells in the logarithmic phase were placed in 96-well plates (∼3000 cells/well) in a complete medium. After incubation overnight, the cells were exposed to the corresponding compounds or vehicle control at the indicated concentration for a further 72 h. Cell proliferation was evaluated using Cell Counting Kit 8 (CCK8, CK04, Dojindo Laboratories, Kumamoto, Japan). OD450 and OD650 were determined using a microplate reader. Absorbance rate (A) for each well was calculated as OD450 −OD650. […] Each IC50 value is expressed as mean ± SD. As is the absorbance rate of the test compound well, Ac is the absorbance rate of the well without either the cell or test compound, and Ab is the absorbance rate of the well with the cell and vehicle control.

[2] = biological target: T1, BRAF^V600E (Homo sapiens, UniProt P15056, V600E); assay: BRAF V600E enzymatic activity, FRET-based Z'-Lyte kinase assay; assay type: biochemical
T1 construct: purchased Invitrogen
Procedure: The experiments were performed according to the instructions of the manufacturer. […] For each assay, 10 μl kinase reactions were added to 384-well plate, mixed thoroughly, and incubated for 1 hour at room temperature. Then, a 5 μl development solution was added to each well and the plate was incubated for another 1 h at room temperature. Then, a 5 μl stop reagent was loaded to stop the reaction. For the control setting, a 5 μl phospho-peptide solution instead of kinase/peptide mixture was used as 100% phosphorylation control. […] The plate was measured on an EnVision Multilabel Reader (Perkin-Elmer). Curve fitting and data presentations were performed using GraphPad Prism, version 5.0. Every experiment was repeated at least two times.

[3] = biological target: T2, HDAC6 (Homo sapiens, UniProt Q9UBN7); assay: HDAC6 fluorescent-based enzymatic activity assay; assay type: biochemical; details: Table 1; read-out: Enzymatic IC50 HDAC6
T2 construct: purchased BPS Bioscience
T2 sequence (Q9UBN7 1-1215): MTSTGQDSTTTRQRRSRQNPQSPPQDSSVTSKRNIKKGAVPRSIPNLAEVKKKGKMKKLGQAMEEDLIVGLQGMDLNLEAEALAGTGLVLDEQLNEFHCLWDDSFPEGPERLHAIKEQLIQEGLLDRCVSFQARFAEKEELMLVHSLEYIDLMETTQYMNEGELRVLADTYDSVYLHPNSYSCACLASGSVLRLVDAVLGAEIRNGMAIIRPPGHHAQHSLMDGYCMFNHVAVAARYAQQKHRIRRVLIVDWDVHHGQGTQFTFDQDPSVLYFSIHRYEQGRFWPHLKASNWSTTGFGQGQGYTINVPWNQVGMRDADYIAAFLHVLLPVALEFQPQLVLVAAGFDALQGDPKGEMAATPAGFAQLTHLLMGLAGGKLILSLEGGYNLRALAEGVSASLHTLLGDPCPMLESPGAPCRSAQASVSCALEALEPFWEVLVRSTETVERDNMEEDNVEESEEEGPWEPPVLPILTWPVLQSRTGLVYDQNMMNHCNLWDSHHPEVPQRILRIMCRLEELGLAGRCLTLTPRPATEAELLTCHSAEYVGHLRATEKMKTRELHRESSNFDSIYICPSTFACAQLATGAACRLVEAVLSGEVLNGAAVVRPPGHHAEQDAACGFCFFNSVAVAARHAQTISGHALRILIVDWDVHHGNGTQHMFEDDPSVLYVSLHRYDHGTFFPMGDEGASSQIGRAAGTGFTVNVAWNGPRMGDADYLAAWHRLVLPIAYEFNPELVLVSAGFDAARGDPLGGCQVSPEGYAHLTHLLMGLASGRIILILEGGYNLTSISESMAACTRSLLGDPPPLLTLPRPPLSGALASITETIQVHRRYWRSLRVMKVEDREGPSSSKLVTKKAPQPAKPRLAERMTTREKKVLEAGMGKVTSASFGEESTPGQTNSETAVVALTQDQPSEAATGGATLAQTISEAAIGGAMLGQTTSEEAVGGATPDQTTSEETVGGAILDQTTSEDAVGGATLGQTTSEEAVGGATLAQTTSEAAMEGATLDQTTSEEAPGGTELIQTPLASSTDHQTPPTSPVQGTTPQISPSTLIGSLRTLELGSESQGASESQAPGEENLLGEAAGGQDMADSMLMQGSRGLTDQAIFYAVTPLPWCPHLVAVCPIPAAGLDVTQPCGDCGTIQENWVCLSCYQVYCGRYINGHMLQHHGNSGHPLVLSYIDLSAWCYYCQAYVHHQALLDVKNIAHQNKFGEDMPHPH
Procedure: (§3) The purified recombinant Human HDACs and their corresponding substrates were purchased from BPS Bioscience (BPS Bioscience Inc., United States). The assays were carried out in a 384-well format using the BPS fluorescent–based HDAC activity assay according to the manufacturer’s protocol. In brief, […] of the HDAC reaction mixture was composed of HDAC assay buffer, […] BSA, serial diluted test compounds, appropriate concentration of HDACs, and […] fluorogenic substrate, the mixture was incubated at 37°C for 60 min, and then stopped by the addition of developer containing trypsin and TSA. After 20 min of incubation, the fluorescence was detected at the excitation wavelength of 360 nm and the emission wavelength of 460 nm using the EnVision Multilabel Reader (PerkinElmer Inc., United States). The analytical software, GraphPad Prism 5.0 (GraphPad Software, Inc., United States) was used to generate IC50 value via non-linear regression analysis.

[4] = tested on: HT-29 cells; assay: Antiproliferation CCK-8 assay, HT-29; assay type: cell-based; details: Homo sapiens; CCK-8, 72 h, HT-29 (BRAF^V600E); means of three independent experiments; read-out: Cellular IC50 HT-29
Procedure: as §1, §2

[5] = biological target: T3, HDAC1 (Homo sapiens, UniProt Q13547); assay: HDAC1 fluorescent-based enzymatic activity assay; assay type: biochemical; details: Table 1; read-out: Enzymatic IC50 HDAC1
T3 construct: purchased BPS Bioscience
Procedure: as §3

T1 sequence (P15056 whole entry V600E): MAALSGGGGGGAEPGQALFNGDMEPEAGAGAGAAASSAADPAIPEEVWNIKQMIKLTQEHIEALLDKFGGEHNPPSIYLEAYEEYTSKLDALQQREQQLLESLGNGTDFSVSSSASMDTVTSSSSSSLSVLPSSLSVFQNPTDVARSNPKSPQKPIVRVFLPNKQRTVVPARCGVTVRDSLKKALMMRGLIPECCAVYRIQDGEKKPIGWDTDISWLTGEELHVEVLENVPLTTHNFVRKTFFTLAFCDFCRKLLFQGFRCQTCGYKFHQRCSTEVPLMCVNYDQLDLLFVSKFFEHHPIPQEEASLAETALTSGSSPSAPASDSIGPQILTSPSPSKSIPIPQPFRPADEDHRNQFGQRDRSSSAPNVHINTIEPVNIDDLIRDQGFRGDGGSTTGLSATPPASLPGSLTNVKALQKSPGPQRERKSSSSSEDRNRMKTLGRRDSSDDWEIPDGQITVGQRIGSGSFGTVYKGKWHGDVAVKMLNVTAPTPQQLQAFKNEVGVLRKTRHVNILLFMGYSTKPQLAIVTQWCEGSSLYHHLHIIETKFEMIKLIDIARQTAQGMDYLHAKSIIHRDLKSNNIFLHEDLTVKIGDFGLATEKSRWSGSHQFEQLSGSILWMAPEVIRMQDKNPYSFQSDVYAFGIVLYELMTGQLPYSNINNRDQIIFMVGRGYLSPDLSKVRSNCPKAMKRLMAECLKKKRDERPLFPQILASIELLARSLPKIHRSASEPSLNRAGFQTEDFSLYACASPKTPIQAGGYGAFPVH
T3 sequence (Q13547 whole entry): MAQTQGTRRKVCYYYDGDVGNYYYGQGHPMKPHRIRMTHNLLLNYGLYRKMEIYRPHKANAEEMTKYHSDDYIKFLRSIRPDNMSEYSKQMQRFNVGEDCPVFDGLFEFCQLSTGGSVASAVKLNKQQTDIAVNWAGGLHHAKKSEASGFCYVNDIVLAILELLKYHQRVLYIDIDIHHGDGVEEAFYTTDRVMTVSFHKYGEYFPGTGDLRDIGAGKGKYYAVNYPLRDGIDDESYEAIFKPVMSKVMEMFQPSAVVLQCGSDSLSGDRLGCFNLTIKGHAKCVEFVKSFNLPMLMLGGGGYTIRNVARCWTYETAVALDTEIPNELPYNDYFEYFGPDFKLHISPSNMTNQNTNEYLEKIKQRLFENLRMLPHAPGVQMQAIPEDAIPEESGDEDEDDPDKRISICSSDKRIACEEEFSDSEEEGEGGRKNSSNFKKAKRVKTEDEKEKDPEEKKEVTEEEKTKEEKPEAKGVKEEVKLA

| SMILES | IC50 [1] [µM] | IC50 [2] [µM] | IC50 [3] [µM] | IC50 [4] [µM] | IC50 [5] [µM] |
| --- | --- | --- | --- | --- | --- |
| CC(C)(C)c1nc(-c2cccc(NS(=O)(=O)c3c(F)cccc3F)c2F)c(-c2ccnc(NCCCCCC(=O)NO)n2)s1 [14a] | 3 | 0.00325 | 1.21 | 1 | 0.679 |
| CC(C)(C)c1nc(-c2cccc(NS(=O)(=O)c3c(F)cccc3F)c2F)c(-c2ccnc(NCCCCCCCC(=O)NO)n2)s1 [14c, 8-{[4-(2-(Tert-Butyl)-4-(3-(2,6-Difluorophenylsulfonamido)-2-Fluorophenyl)Thiazol-5-yl)Pyrimidin-2-yl]Amino}-N-Hydroxyoctanamide] | 4.47 | 0.00227 | 0.128 | 0.88 | 0.312 |
| CC(C)(C)c1nc(-c2cccc(NS(=O)(=O)c3c(F)cccc3F)c2F)c(-c2ccnc(NCCCCCCCCC(=O)NO)n2)s1 [14d, 9-{[4-(2-(Tert-Butyl)-4-(3-(2,6-Difluorophenylsulfonamido)-2-Fluorophenyl)Thiazol-5-yl)Pyrimidin-2-yl]Amino}-N-Hydroxynonanamide] | 3.66 | 0.00382 | 0.322 | 0.48 | 0.765 |
| Cc1nc(-c2cccc(NS(=O)(=O)c3c(F)cccc3F)c2F)c(-c2ccnc(NCCCCCCC(=O)NO)n2)s1 [14e, 7-{[4-(4-(3-(2,6-Difluorophenylsulfonamido)-2-Fluorophenyl)-2-Methylthiazol-5-yl)Pyrimidin-2-yl]Amino}-N-Hydroxyheptanamide] | 7.53 | 0.0035 | 0.0146 | 6.39 | 0.0423 |
| CCc1nc(-c2cccc(NS(=O)(=O)c3c(F)cccc3F)c2F)c(-c2ccnc(NCCCCCCC(=O)NO)n2)s1 [14f, 7-{[4-(4-(3-(2,6-Difluorophenylsulfonamido)-2-Fluorophenyl)-2-Ethylthiazol-5-yl)Pyrimidin-2-yl]Amino}-N-Hydroxyheptanamide] | 4.27 | 0.00166 | 0.0265 | 1.27 | 0.0613 |
| CC(C)c1nc(-c2cccc(NS(=O)(=O)c3c(F)cccc3F)c2F)c(-c2ccnc(NCCCCCCC(=O)NO)n2)s1 [14g, 7-{[4-(4-(3-(2,6-Difluorophenylsulfonamido)-2-Fluorophenyl)-2-Isopropylthiazol-5-yl)Pyrimidin-2-yl]Amino}-N-Hydroxyheptanamide] | 2.68 | 0.00151 | 0.03 | 0.99 | 0.13 |
| O=C(CCCCCCNc1nccc(-c2sc(C3CC3)nc2-c2cccc(NS(=O)(=O)c3c(F)cccc3F)c2F)n1)NO [14h, 7-{[4-(2-Cyclopropyl-4-(3-(2,6-Difluorophenylsulfonamido)-2-Fluorophenyl)Thiazol-5-yl)Pyrimidin-2-yl]Amino}-N-Hydroxyheptanamide] | 4.71 | 0.00131 | 0.0271 | 2.21 | 0.0498 |
| CCCc1nc(-c2cccc(NS(=O)(=O)c3c(F)cccc3F)c2F)c(-c2ccnc(NCCCCCCC(=O)NO)n2)s1 [14i, 7-{[4-(4-(3-(2,6-Difluorophenylsulfonamido)-2-Fluorophenyl)-2-Propylthiazol-5-yl)Pyrimidin-2-yl]Amino}-N-Hydroxyheptanamide] | 3.08 | 0.00107 | 0.0646 | 0.97 | 0.105 |
| CC(C)(C)c1nc(-c2cccc(NS(C)(=O)=O)c2F)c(-c2ccnc(NCCCCCCC(=O)NO)n2)s1 [21a, 7-{[4-(2-(Tert-Butyl)-4-(2-Fluoro-3-(Methylsulfonamido)Phenyl)Thiazol-5-yl)Pyrimidin-2-yl]Amino}-N-Hydroxyheptanamide] | 8.52 | 0.00103 | 0.0222 | 5.02 | 0.113 |
| CCCS(=O)(=O)Nc1cccc(-c2nc(C(C)(C)C)sc2-c2ccnc(NCCCCCCC(=O)NO)n2)c1F [21b, 7-{[4-(2-(Tert-Butyl)-4-(2-Fluoro-3-(Propylsulfonamido)Phenyl)Thiazol-5-yl)Pyrimidin-2-yl]Amino}-N-Hydroxyheptanamide] | 5.44 | 0.00171 | 0.0721 | 0.78 | 0.432 |
| Cc1nc(-c2cccc(NS(C)(=O)=O)c2F)c(-c2ccnc(NCCCCCCC(=O)NO)n2)s1 [21d, 7-{[4-(4-(2-Fluoro-3-(Methylsulfonamido)Phenyl)-2-Methylthiazol-5-yl)Pyrimidin-2-yl]Amino}-N-Hydroxyheptanamide] | > 10 | 0.258 | 0.0218 | > 10 | 0.071 |
| CCS(=O)(=O)Nc1cccc(-c2nc(C)sc2-c2ccnc(NCCCCCCC(=O)NO)n2)c1F [21e, 7-{[4-(4-(3-(Ethylsulfonamido)-2-Fluorophenyl)-2-Methylthiazol-5-yl)Pyrimidin-2-yl]Amino}-N-Hydroxyheptanamide] | 9.15 | 0.107 | 0.0188 | > 10 | 0.0522 |
| Cc1nc(-c2cccc(NS(=O)(=O)c3ccccc3)c2F)c(-c2ccnc(NCCCCCCC(=O)NO)n2)s1 [21f, 7-{[4-(4-(2-Fluoro-3-(Phenylsulfonamido)Phenyl)-2-Methylthiazol-5-yl)Pyrimidin-2-yl]Amino}-N-Hydroxyheptanamide] | 4.41 | 0.00392 | 0.0187 | 4.96 | 0.0494 |
